# Tests used:
# leucocyte number = assay: Alteration of the leucocyte number in rats; format: in vivo, female Sprague-Dawley rats; conditions: fourth day, ten rats; for response vs control in vivo at 50 mg/kg / response vs control in vivo at 200 mg/kg: Rattus norvegicus, Leucocyte, po, 96 h, read-out: proportion of the average leucocyte number of the test group to that of the control group; for proportion of the average leucocyte number of the test group to that of the control group: oral
# Procedure: (a) Alteration of the leucocyte number
# The active substance was dissolved in each case in 10 ml of a 1% methyl-hydroxyethyl cellulose solution per kg of body weight and orally applied by means of a neck tube to ten fasting female Sprague-Dawley rats in each case. On the fourth day, blood was taken retroorbitally and the leucocyte number was determined by means of a coult counter.
# DC-Carcino-Sarcoma = assay: Cancerostatic effect: DC-Carcino-Sarcoma transplanted in rats; format: in vivo, female Sprague-Dawley rats; conditions: for Tumor weight: three days prior to tumor application, day 7, average of 20 animals; for Difference (tumor weight): vs control
# Procedure: (§1) Ready-to-be-transplanted tumors of various kinds were taken from freshly killed rats, comminuted coarsely and pulverized with addition of 8 ml of physiological sodium chloride solution. Female Sprague-Dawley rats weighing 80 to 100 g were used as test animals. The respective tumor cell suspension was applied subfacially to the animals in an amount of 0.5 ml per animal under sterile conditions in the neck area. On the seventh day after the transplantation the animals were killed, the tumors taken out and weighed. The substances according to the instant invention were in each case applied orally three days prior to the tumor application by means of a throat tube (in 10 ml 1% hydrous methylhydroxylethyl cellulose solution per kg of body weight).
# Walker-Carcinoma 256 = assay: Cancerostatic effect: Walker-Carcinoma 256 transplanted in rats; format: in vivo, female Sprague-Dawley rats; conditions: for Tumor weight: three days prior to tumor application, day 7, average of 20 animals; for Difference (tumor weight): vs control
# Procedure: as §1
# [1] = tested on: leukocytes, lymphocytes, erythrocytes, antibody-forming spleen cells; conditions: intravenous; cited from earlier work
# [2] = prior art compound, cited from earlier work
# [3] = Acute toxicity (LD50) in rats; conditions: rat, in vivo
# Procedure: (§2) These values are much higher than the pharmacologically effective dosages (0.5-50 mg/kg body weight).
# Candida albicans-219 = assay: Resistance increase in case of Candida albicans infection in mice; format: in vivo, Candida albicans; female NMRI mice; conditions: 50 mg per kg oral, one hour after i.v. infection, after six days
# Procedure: Female, adult NMRI mice weighing 25-30 g were infected with Candida albicans-219. A suspension of approximately 300,000 germs in 0.2 ml physiological sodium chloride per animal was given intravenously. One hour later, 50 mg of the compound of Example 1, per kg body weight, were applied orally by way of neck tube, dissolved in 10 ml 0.1% methyl-hydroxyethyl cellulose. The control group received the same solution without active material. After six days, 18 of the 30 animals of the control group were dead, but only 3 of the 30 animals of the test group, which corresponds to a survival rate of 90% and makes clearly evident the resistance-increasing effect.
# [4] = Acute toxicity (LD50) in mice; conditions: mouse, in vivo, ip, single intraperitoneal administration
# Procedure: as §2
# Candida albicans = assay: In vitro fungistatic effect; format: cell-based
Structure (SMILES),response vs control in vivo at 50 mg/kg (leucocyte number; 50 mg per kg body weight),response vs control in vivo at 200 mg/kg (leucocyte number; 200 mg per kg body weight),other results
"COC(=O)C1CCC(N2CC2C#N)(N2CC2C(N)=O)CC1 (stereo not drawn) [Example 20, 1-[2-Cyanoaziridinyl-(1)]-1-[2-carbamoylaziridinyl-(1)]-4-methoxycarbonylcyclohexane]",123%,151%,–
"N#CC1CN1C(C=Cc1ccccc1)N1CC1C(N)=O (stereo not drawn) [Example 31, 3-[2-cyanoaziridinyl-(1)]-3-[2-carbamoylaziridinyl-(1)]-1-phenylprop-1-ene]",113%,141%,–
N#CC1CN1C(c1ccc(O)cc1)N1CC1C(N)=O (stereo not drawn) [30 c],170%,221%,–
"CC(C1CC1)(N1CC1C#N)N1CC1C(N)=O (stereo not drawn) [Example 9, 1-[2-cyanoaziridinyl-(1)]-1-[2-carbamoylaziridinyl-(1)]-1-cyclopropylethane]",132%,182%,–
"CC1CCC(N2CC2C#N)(N2CC2C(N)=O)CC1 (stereo not drawn) [Example 19, 1-[2-Cyanoaziridinyl-(1)]-1-[2-carbamoylaziridinyl-(1)]-4-methylcyclohexane]",100%,136%,–
"N#CC1CN1C(c1ccccc1)(c1ccccc1)N1CC1C(N)=O (stereo not drawn) [Example 26, α-[2-Cyanoaziridinyl-(1)]-α-[2-carbamoylaziridinyl-(1)]-diphenylmethane]",125%,120%,–
"N#CC1CN1C1(N2CC2C(N)=O)CCCCC1 (stereo not drawn) [Example 10, 1-[2-Cyanoaziridinyl-(1)]-1-[2-carbamoylaziridinyl-(1)]cyclohexane]",–,–,"Tumor weight (DC-Carcino-Sarcoma; 50 mg/kg oral): 11.0 g; Difference (tumor weight) (DC-Carcino-Sarcoma; 50 mg/kg oral): -38.5%; Tumor weight (DC-Carcino-Sarcoma; 100 mg/kg oral): 10.9 g; Difference (tumor weight) (DC-Carcino-Sarcoma; 100 mg/kg oral): -40.0%; Tumor weight (Walker-Carcinoma 256; 10.0 mg/kg oral): 7.9 g; Tumor weight (Walker-Carcinoma 256; 50.0 mg/kg oral): 5.0 g; Difference (tumor weight) (Walker-Carcinoma 256; 50.0 mg/kg oral): -41.7%; Tumor weight (Walker-Carcinoma 256; 100.0 mg/kg oral): 4.5 g; Difference (tumor weight) (Walker-Carcinoma 256; 100.0 mg/kg oral): -46.9%; proportion of the average leucocyte number of the test group to that of the control group (leucocyte number; 50 mg per kg body weight): 0,92; proportion of the average leucocyte number of the test group to that of the control group (leucocyte number; 200 mg per kg body weight): 2,06"
N#CC1CN1C(N)=O (stereo not drawn) [1-carboxamido-2-cyanoaziridine],–,–,antibody-forming spleen cells [1]: increase of the antibody-forming spleen cells; cytostatic action [1]: cytostatic action; number of erythrocytes [1]: substantially unchanged; number of leukocytes and lymphocytes [1]: marked increase; keeping time in buffered aqueous solution ([2]; buffered aqueous solution): can only be kept for a short time; acid stability [2]: acid lability
CC(C)C(N1CC1C#N)N1CC1C(N)=O (stereo not drawn) [27 a],119%,166%,–
Cc1ccccc1C(N1CC1C#N)N1CC1C(N)=O (stereo not drawn) [30 a],140%,134%,–
N#CC1CN1C(c1ccco1)N1CC1C(N)=O (stereo not drawn) [29 d],100%,130%,–
N#CC1CN1C(c1cccc([N+](=O)[O-])c1)N1CC1C(N)=O (stereo not drawn) [29 f],109%,126%,–
COC(=O)c1ccc(C(N2CC2C#N)N2CC2C(N)=O)cc1 (stereo not drawn) [30 d],108%,150%,–
CCC(N1CC1C#N)N1CC1C(N)=O (stereo not drawn) [27 d],140%,178%,–
"CC(N1CC1C#N)N1CC1C(N)=O (stereo not drawn) [Example 27, 1-[2-Cyanoaziridinyl-(1)]-1-[2-carbamoylaziridinyl-(1)]-ethane]",117%,153%,–
"CCOC(=O)C(C)(N1CC1C#N)N1CC1C(N)=O (stereo not drawn) [Example 6, Ethyl α-[2-cyanoaziridinyl-(1)]-α-[2-carbamoylaziridinyl-(1)]-propionate]",115%,165%,–
"N#CC1CN1C1(N2CC2C(N)=O)CCCCC1 (stereo not drawn) [Example 16, 1-[2-Cyanoaziridinyl-(1)]-1-[2-carbamoylaziridinyl-(1)]-cyclohexane]",–,–,"proportion of the average leucocyte number of the test group to that of the control group (leucocyte number; 50 mg per kg body weight): 1,30; proportion of the average leucocyte number of the test group to that of the control group (leucocyte number; 200 mg per kg body weight): 1,50"
"CC(C)(N1CC1C#N)N1CC1C(N)=O (stereo not drawn) [Example 3, 2-[2-Cyanoaziridinyl-(1)]-2-[2-carbamoylaziridinyl-(1)]-propane]",–,–,"proportion of the average leucocyte number of the test group to that of the control group (leucocyte number; 50 mg per kg body weight): 1,42; proportion of the average leucocyte number of the test group to that of the control group (leucocyte number; 200 mg per kg body weight): 1,82"
N#CC1CN1C(c1ccc(Cl)cc1)N1CC1C(N)=O (stereo not drawn) [29 b],100%,140%,–
COc1cccc(C(N2CC2C#N)N2CC2C(N)=O)c1 (stereo not drawn) [30 b],122%,131%,–
N#CC1CN1C(c1cccs1)N1CC1C(N)=O (stereo not drawn) [29 e],115%,150%,–
CCCC(N1CC1C#N)N1CC1C(N)=O (stereo not drawn) [27 e],130%,136%,–
N#CC1CN1C1(N2CC2C(N)=O)CCOCC1 (stereo not drawn) [28 a],109%,130%,–
"N#CC1CN1C1(N2CC2C(N)=O)CCCSC1 (stereo not drawn) [Example 28, 3-[2-Cyanoaziridinyl-(1)]-3-[2-carbamoylaziridinyl-(1)]-tetrahydrothiapyran]",126%,180%,–
N#CC1CN1C(C1CCCCC1)N1CC1C(N)=O (stereo not drawn) [28 b],120%,155%,–
"N#CC1CN1C1CCCC(N2CC2C#N)(N2CC2C(N)=O)C1 (stereo not drawn) [Example 21, 1,3-Bis-[2-cyanoaziridinyl-(1)]-1-[2-carbamoylaziridinyl-(1)]-cyclohexane]",111%,130%,–
"CC(C)(N1CC1C#N)N1CC1C(N)=O (stereo not drawn) [Example 1, 2-[2-Cyanoaziridinyl-(1)]-2-[2-carbamoylaziridinyl-(1)]-propane]",–,–,"LD50 ([3]; ip, single intraperitoneal administration, read-out: acute toxicity (LD50)): 2550 mg/kg; LD50 ([3]; oral administration, read-out: LD50): 3100 mg/kg; Tumor weight (DC-Carcino-Sarcoma; 150 mg/kg oral): 5.9 g; Difference (tumor weight) (DC-Carcino-Sarcoma; 150 mg/kg oral): -67.0%; Tumor weight (DC-Carcino-Sarcoma; 300 mg/kg oral): 9.8 g; Difference (tumor weight) (DC-Carcino-Sarcoma; 300 mg/kg oral): -45.0%; survival rate (Candida albicans-219): 90%; dead animals (Candida albicans-219; control 18 of 30): 3 of the 30 animals; Tumor weight (Walker-Carcinoma 256; 5.0 mg/kg oral): 11.8 g; Difference (tumor weight) (Walker-Carcinoma 256; 5.0 mg/kg oral): -27.1%; Tumor weight (Walker-Carcinoma 256; 50.0 mg/kg oral): 12.1 g; Difference (tumor weight) (Walker-Carcinoma 256; 50.0 mg/kg oral): -25.4%; Tumor weight (Walker-Carcinoma 256; 100.0 mg/kg oral): 15.6 g; LD50 [4]: 2270 mg/kg; fungistatic effect (Candida albicans): no fungistatic effect; proportion of the average leucocyte number of the test group to that of the control group (leucocyte number; 50 mg per kg body weight): 1,70; proportion of the average leucocyte number of the test group to that of the control group (leucocyte number; 200 mg per kg body weight): 1,55"
"N#CC1CN1C1(N2CC2C#N)CCCCC1 (stereo not drawn) [Example 32, 1,1-bis-[2-cyanoaziridinyl-(1)]-cyclohexane]",150%,150%,–

# — patent US4370323A, “2-Cyanoaziridinyl-(1)-2-substituted-aziridinyl-(1)-methanes” (Boehringer Mannheim GmbH, priority 1976, dated 1983)
